Like-named read-outs stand apart in the source and are kept apart here. Ends that are not written are not given here.
Assays:
[1] = tested on: E. coli ATCC 8739; type: cell-based, Escherichia coli; conditions: for MBC E. coli ATCC 8739: plated on MHA, ≥3 log reduction vs growth control
Procedure, shortened: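 Peptides were serially diluted (64–0.25 μM, repeat 32–0.016 μM) against 5 × 10^3 CFU/mL inocula in MHB (bacteria) or RPMI (fungi) at 37°C for 16 h (bacteria), 24 h (C. albicans) or 48 h (A. fumigatus). MIC was read visually with resazurin readout; MBC was defined as ≥3 log reduction on MHA.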

[2] = tested on: P. aeruginosa ATCC 9027; type: cell-based, Pseudomonas aeruginosa; conditions: for MBC P. aeruginosa ATCC 9027: plated on MHA, ≥3 log reduction vs growth control
[3] = tested on: P. aeruginosa ATCC 9027; experiment: Time-to-kill analysis; type: cell-based, Pseudomonas aeruginosa
Protocol: To investigate the bactericidal kinetics of the selected AMPs, a time-to-kill analysis was performed as described previously by Mascio et al. ([78]). Briefly, peptide serial dilutions were prepared in 96-well plates (10 μL) and mixed with 190 μL of a P. aeruginosa ATCC 9027 culture of an optical density measured at a wavelength of 600 nm (OD600) of 0.1. Plates were incubated at 37°C and at selected time points (0 h, 0.5 h, 1 h, 2 h, 4 h, and 5 h), aliquots were removed and serially diluted in PBS. The dilutions were plated on TSA and incubated overnight at 37°C. Afterwards, bacterial viability was assessed by performing a standard plate count. Bactericidal activity was defined as a ≥3-log reduction compared with the untreated bacterial control. To avoid carry-over effect of the peptides, the undiluted sample was not plated, leading to a quantification limit of 10^3 CFU/mL ([78]). Bacterial counts were calculated for each AMP concentration at each time point using the average plate count. Afterwards, log10 reductions of the bacterial counts were calculated using the following formula: log10 reduction = log10 (viable microorganisms without AMP treatment/viable microorganisms with AMP treatment). Next, the average log10 reductions and the standard deviations of five independent experiments were calculated and visualized using GraphPad Prism 8.

[4] = tested on: P. aeruginosa ATCC 9027; experiment: Outer membrane permeabilization with N-phenyl-naphthylamine; type: cell-based, Pseudomonas aeruginosa; conditions: compared with 16 μM polymyxin B
Protocol: N-phenyl-naphthylamine (NPN; Tokyo chemical industry [TCI]) was used to study the permeabilization of the OM as described by […] et al. ([81]). Briefly, P. aeruginosa ATCC 9027 was grown until the mid-log phase in MHB. Afterwards, the cells were centrifuged (3,000 × g, 15 min) and resuspended in 5 mM HEPES buffer (pH 7.4) to an OD600 of 0.5. […] Fluorescence was measured every 5 min during 1 h using a microplate reader (Promega) with λexcitation = 350 nm and λemission = 420. Data were normalized based on the fluorescent signal in the presence of 50 μL HEPES buffer, 50 μL NPN, and 100 μL bacteria. Experiments were carried out in triplicate.

[5] = tested on: P. aeruginosa ATCC 9027; experiment: Cytoplasmic membrane depolarization assay, diSC3(5); type: cell-based, Pseudomonas aeruginosa; conditions: 32-0.25 μM
Protocol: To study the effects of the peptides on the membrane potential, 3,3′-dipropylthiadicarbocyanine iodide (diSC3(5); TCI) was used as described by Kwon et al. ([82]). P. aeruginosa ATCC 9027 was grown until the mid-log phase in MHB. Afterwards, the cells were centrifuged (3,000 × g, 15 min), washed and resuspended in 5 mM HEPES buffer (pH 7.4) supplemented with 20 mM glucose and 100 mM KCl to an OD600 of 0.2. […] The fluorescent signal was measured at λexcitation = 620 nm and λemission = 670 with a microplate reader (Promega) every 5 min during 1 h. Furthermore, 0.1% Triton-X was used as a positive control. Data were normalized based on the fluorescent signal in the presence of 50 μL supplemented HEPES buffer and 150 μL diSC3(5)-bacterial suspension. The assay was carried out in triplicate.

[6] = tested on: E. coli ATCC 8739; conditions: ATCC 8739, 16 h
[7] = tested on: P. aeruginosa ATCC 9027; conditions: ATCC 9027, 16 h
[8] = tested on: P. aeruginosa ATCC 15692 (PAO1); conditions: ATCC 15692, 16 h
[9] = tested on: M. tuberculosis ATCC 25177 (H37Ra); conditions: for IC50: read-out: IC50 M. tuberculosis ATCC 25177 (H37Ra), starting at 32 μM, 5×10^5 CFU/mL, 7 days, 37°C, resazurin; for MIC M. tuberculosis ATCC 25177 (H37Ra): visual

Substance: RWYKKIFKPVEKAVQRVRDGTLQALGVAQQAANVYATAQGAQQQRHA-NH2 [Hill-Cec10]
- MIC E. coli ATCC 8739 ([1]; ATCC 8739, 16 h): 0.50 µM
- MIC E. coli ATCC 8739 ([1]; repeat 1, 64-0.25 μM, determined visually, 16 h): 0.25 µM
- MBC E. coli ATCC 8739 ([1]; repeat 1): 0.25 µM
- MBC E. coli ATCC 8739 ([1]; repeat 2): 32.00 µM
- MBC P. aeruginosa ATCC 9027 ([2]; repeat 1): 16.00 µM
- MIC P. aeruginosa ATCC 9027 ([2]; repeat 2, 32-0.016 μM, determined visually, 16 h): 2.00 µM
- MBC P. aeruginosa ATCC 9027 ([2]; repeat 2): 2.00 µM
- log10 reduction of P. aeruginosa ([3]; 8 μM (8 × MIC Hill-Cec1, 4 × MIC Hill-Cec10), after 5 h, mean ± SD of five experiments): 2.44 ± 0.46 log10
- log10 reduction of P. aeruginosa ([3]; 16 μM (8 × MIC), after 5 h, mean ± SD of five experiments): 4.60 ± 0.94 log10
- log10 reduction of P. aeruginosa ([3]; 16 μM (8 × MIC), always (all experiments)): ≥ 3 log10
- concentration needed to maintain bactericidal activity ([3]; time-to-kill, ≥3-log10 reduction vs growth control): ≥ 16 µM
- maximum NPN uptake ([4]; at 32 μM): 75%
- concentration to achieve at least 50% NPN uptake [4]: 4 µM
- cytoplasmic membrane depolarization (diSC3(5) fluorescence) [5]: cause cytoplasmic membrane depolarization
- MIC E. coli ATCC 8739 [6]: 1 µM
- IC50 [7]: 0.75 µM
- MBC P. aeruginosa ATCC 15692 (PAO1) [8]: 16 µM
- IC50 ([9]; repeat 1): > 32 µM
- IC50 ([9]; repeat 2): > 32 µM
- MIC M. tuberculosis ATCC 25177 (H37Ra) ([9]; repeat 1): >32 µM
- MIC M. tuberculosis ATCC 25177 (H37Ra) ([9]; repeat 2): >32 µM

Reference: paper PMC8729770, “In Vitro Evaluation of Antimicrobial Peptides from the Black Soldier Fly (Hermetia Illucens) against a Selection of Human Pathogens” (Microbiology Spectrum, 2022)
